Laboratory results from PubChem BioAssay AID1259407 (Chemical Carcinogenesis Research Information System (CCRIS), 2018).
Active and inactive are the calls of the source. The rule behind the calls is not given here.

Test system: CCRIS mutagenicity, Ames/micronucleus/aberration tests
Experiment: CCRIS mutagenicity studies
[1] = Test System: AMES SALMONELLA TYPHIMURIUM, Strain/Indicator: TA97, Metabolic Activation: NONE, Method: PREINCUBATION
[2] = Test System: AMES SALMONELLA TYPHIMURIUM, Strain/Indicator: TA98, Metabolic Activation: NONE, Method: PREINCUBATION
[3] = Test System: AMES SALMONELLA TYPHIMURIUM, Strain/Indicator: TA100, Metabolic Activation: NONE, Method: PREINCUBATION
[4] = Test System: AMES SALMONELLA TYPHIMURIUM, Strain/Indicator: TA102, Metabolic Activation: NONE, Method: PREINCUBATION
[5] = Test System: AMES SALMONELLA TYPHIMURIUM, Strain/Indicator: TA104, Metabolic Activation: NONE, Method: PREINCUBATION
[6] = Test System: AMES SALMONELLA TYPHIMURIUM, Strain/Indicator: TA1535, Metabolic Activation: NONE, Method: PREINCUBATION
[7] = Test System: AMES SALMONELLA TYPHIMURIUM, Strain/Indicator: TA1537, Metabolic Activation: NONE, Method: PREINCUBATION

Measured: mutagenic call

O=c1[nH]c(=O)n([C@H]2C[C@H](O)[C@@H](CO)O2)cc1CCCCl
inactive: [1] inactive; negative | Test System: AMES SALMONELLA TYPHIMURIUM, Strain/Indicator: TA97, Metabolic Activation: RAT, LIVER, S-9, AROCLOR 1254, Method: PREINCUBATION inactive; negative | [2] inactive; negative | Test System: AMES SALMONELLA TYPHIMURIUM, Strain/Indicator: TA98, Metabolic Activation: RAT, LIVER, S-9, AROCLOR 1254, Method: PREINCUBATION inactive; negative | [3] inactive; negative | Test System: AMES SALMONELLA TYPHIMURIUM, Strain/Indicator: TA100, Metabolic Activation: RAT, LIVER, S-9, AROCLOR 1254, Method: PREINCUBATION inactive; negative | [4] inactive; negative | Test System: AMES SALMONELLA TYPHIMURIUM, Strain/Indicator: TA102, Metabolic Activation: RAT, LIVER, S-9, AROCLOR 1254, Method: PREINCUBATION inactive; negative | [5] inactive; negative | Test System: AMES SALMONELLA TYPHIMURIUM, Strain/Indicator: TA104, Metabolic Activation: RAT, LIVER, S-9, AROCLOR 1254, Method: PREINCUBATION inactive; negative | [6] inactive; negative | Test System: AMES SALMONELLA TYPHIMURIUM, Strain/Indicator: TA1535, Metabolic Activation: RAT, LIVER, S-9, AROCLOR 1254, Method: PREINCUBATION inactive; negative | [7] inactive; negative | Test System: AMES SALMONELLA TYPHIMURIUM, Strain/Indicator: TA1537, Metabolic Activation: RAT, LIVER, S-9, AROCLOR 1254, Method: PREINCUBATION inactive; negative | Test System: AMES SALMONELLA TYPHIMURIUM, Strain/Indicator: TA1538, Metabolic Activation: NONE, Method: PREINCUBATION inactive; negative | Test System: AMES SALMONELLA TYPHIMURIUM, Strain/Indicator: TA1538, Metabolic Activation: RAT, LIVER, S-9, AROCLOR 1254, Method: PREINCUBATION inactive; negative | Test System: CHINESE HAMSTER V-79, Strain/Indicator: V-79/8-AZAGUANINE, Metabolic Activation: NONE inactive; negative

CCCBr
inactive: End Point: In vitro micronucleus, Test System: Chinese Hamster Ovary (CHO-WBL) cells, Metabolic Activation: None inactive; negative | [2] inactive; negative | Test System: AMES SALMONELLA TYPHIMURIUM, Strain/Indicator: TA98, Metabolic Activation: RAT LIVER S-9, PHENOBARBITAL AND BETA-NAPHTHOFLAVONE, Method: PREINCUBATION inactive; negative | [3] inactive; negative | Test System: AMES SALMONELLA TYPHIMURIUM, Strain/Indicator: TA100, Metabolic Activation: RAT LIVER S-9, PHENOBARBITAL AND BETA-NAPHTHOFLAVONE, Method: PREINCUBATION inactive; negative | [4] inactive; negative | Test System: AMES SALMONELLA TYPHIMURIUM, Strain/Indicator: TA102, Metabolic Activation: RAT LIVER S-9, PHENOBARBITAL AND BETA-NAPHTHOFLAVONE, Method: PREINCUBATION inactive; negative | [5] inactive; negative | Test System: AMES SALMONELLA TYPHIMURIUM, Strain/Indicator: TA104, Metabolic Activation: RAT LIVER S-9, PHENOBARBITAL AND BETA-NAPHTHOFLAVONE, Method: PREINCUBATION inactive; negative | [6] inactive; negative | Test System: AMES SALMONELLA TYPHIMURIUM, Strain/Indicator: TA1535, Metabolic Activation: RAT LIVER S-9, PHENOBARBITAL AND BETA-NAPHTHOFLAVONE, Method: PREINCUBATION inactive; negative | [7] inactive; negative | Test System: AMES SALMONELLA TYPHIMURIUM, Strain/Indicator: TA1537, Metabolic Activation: RAT LIVER S-9, PHENOBARBITAL AND BETA-NAPHTHOFLAVONE, Method: PREINCUBATION inactive; negative | Test System: E.COLI, Strain/Indicator: WP2UVRA/PKM101, Metabolic Activation: NONE, Method: PREINCUBATION inactive; negative | Test System: E.COLI, Strain/Indicator: WP2UVRA/PKM101, Metabolic Activation: RAT LIVER S-9, PHENOBARBITAL AND BETA-NAPHTHOFLAVONE, Method: PREINCUBATION inactive; negative | Test System: E.COLI, Strain/Indicator: WP2UVRA, Metabolic Activation: NONE, Method: PREINCUBATION inactive; negative | Test System: E.COLI, Strain/Indicator: WP2UVRA, Metabolic Activation: RAT LIVER S-9, PHENOBARBITAL AND BETA-NAPHTHOFLAVONE, Method: PREINCUBATION inactive; negative

Cc1cccc(N)c1
inactive: Test System: AMES SALMONELLA TYPHIMURIUM, Strain/Indicator: TA97, Metabolic Activation: HAMSTER, LIVER, S-9, AROCLOR 1254 (10 OR 30%), Method: PREINCUBATION inactive; negative | [1] inactive; negative | Test System: AMES SALMONELLA TYPHIMURIUM, Strain/Indicator: TA97, Metabolic Activation: RAT, LIVER, S-9, AROCLOR 1254 (10 OR 30%), Method: PREINCUBATION inactive; negative | Test System: AMES SALMONELLA TYPHIMURIUM, Strain/Indicator: TA98, Metabolic Activation: HAMSTER, LIVER, S-9, AROCLOR 1254 (10 OR 30%), Method: PREINCUBATION inactive; negative | [2] inactive; negative | Test System: AMES SALMONELLA TYPHIMURIUM, Strain/Indicator: TA98, Metabolic Activation: RAT, LIVER, S-9, AROCLOR 1254 (10 OR 30%), Method: PREINCUBATION inactive; negative | Test System: AMES SALMONELLA TYPHIMURIUM, Strain/Indicator: TA100, Metabolic Activation: HAMSTER, LIVER, S-9, AROCLOR 1254 (10 OR 30%), Method: PREINCUBATION inactive; negative | [3] inactive; negative | Test System: AMES SALMONELLA TYPHIMURIUM, Strain/Indicator: TA100, Metabolic Activation: RAT, LIVER, S-9, AROCLOR 1254 (10 OR 30%), Method: PREINCUBATION inactive; negative | Test System: AMES SALMONELLA TYPHIMURIUM, Strain/Indicator: TA1535, Metabolic Activation: HAMSTER, LIVER, S-9, AROCLOR 1254 (10 OR 30%), Method: PREINCUBATION inactive; negative | [6] inactive; negative | Test System: AMES SALMONELLA TYPHIMURIUM, Strain/Indicator: TA1535, Metabolic Activation: RAT, LIVER, S-9, AROCLOR 1254 (10 OR 30%), Method: PREINCUBATION inactive; negative | Test System: AMES SALMONELLA TYPHIMURIUM, Strain/Indicator: TA1537, Metabolic Activation: HAMSTER, LIVER, S-9, AROCLOR 1254 (10 OR 30%), Method: PREINCUBATION inactive; negative | [7] inactive; negative | Test System: AMES SALMONELLA TYPHIMURIUM, Strain/Indicator: TA1537, Metabolic Activation: RAT, LIVER, S-9, AROCLOR 1254 (10 OR 30%), Method: PREINCUBATION inactive; negative
